Data set [1] has as its system hematopoietic stem cells CD41:GFP accumulated in the CHT. It counts as in vivo. The conditions noted are these: for reduction of the number of HSCs accumulated in CHT: 10 μM (FIG. 3; b188 prints 10 μl), 24 h, vs reference embryos treated with DMSO; for efficiency on number of cells migrated to CHT: 24 hours, FIG. 6. The text has this: A method for determining whether a molecule is capable of treating cancer in the pre-metastatic state has been described in international application WO 2011/007259. This method consists in isolating molecules capable of inhibiting the emergence of hematopoietic stem cells from the floor of the aorta without cell division, but by endothelial-to-hematopoietic transition. This emergence involves the loss of cell polarity of emerging cells, the loss of cellular junctions with these neighboring cells and the acquisition of migratory properties. This model is used because it mimics each stage of the epithelial-mesenchymal transition, the first stage of cancer metastasis. The endothelial-to-hematopoietic transition takes place in a region of the embryo called Aorta-Gonad-Mesonephros (AGM).
The colonization of hematopoietic tissues by hematopoietic stem cells mimics the appearance and/or progression of a metastatic cancerous tumor since it involves intravasation, extravasation, or the migration of HSCs following a gradient of SDF-1. The first colonized tissue is caudal hematopoietic tissue (CHT).
In order to evaluate the inhibition of the endothelial-to-hematopoietic transition, transgenic CD41:GFP (green fluorescent protein) embryos are used. HSCs express GFP under the control of the CD41 promoter, which allows them to be monitored in vivo under a fluorescence microscope. The read-out is the number of hematopoietic stem cells CD41:GFP accumulated in the AGM (mimicking the initiation of the metastatic process) and/or in the CHT of the zebrafish embryo (mimicking the progression of the metastatic process). The accumulation of CD41:GFP cells in CHT implies that each cell has made an endothelial-to-hematopoietic transition, intravasation, extravasation at the CHT level, has settled in a stromal niche and has proliferated.
The Tg transgenic zebrafish line (CD41:GFP) is maintained in accordance with the protocols described by the Ethical Committee for Animal Experimentation. The fish are kept at a temperature of 28° C. and their development stage is determined as before. The molecules are tested on zebrafish embryos at the 25 hpf stage. The embryos are decorticated and transferred to a 96-well plate (1 embryo/well) containing the test compounds in a final volume of 100 μl of the embryonic growth medium (60 μg salt for 1 ml H2O). […] The treated embryos are incubated for 24 hours in an incubator at 28° C.
The embryos are imaged with a plate reader after being anesthetized with 0.16% tricaine (ethyl-3-aminobenzoate). A quantification of the number of fluorescent cells (CD41:GFP) accumulated in the CHT is carried out.
Althiazide was tested on the zebrafish embryo according to the method previously described in the international application WO 2011/007259. This method consists in isolating molecules capable of inhibiting the emergence of hematopoietic stem cells from the floor of the aorta without cell division, but by endothelial-to-hematopoietic transition. This emergence involves the loss of cell polarity of emerging cells, the loss of cellular junctions with these neighboring cells and the acquisition of migratory properties. This model is used, in the context of the invention, because it mimics each of the stages of the epithelial-to-mesenchymal transition, the first stage of the cancerous metastasis. The endothelial-to-hematopoietic transition takes place in a region of the embryo called Aorto-Gonado-Mesonephros (AGM).
The colonization of hematopoietic tissues by hematopoietic stem cells mimics the appearance and/or progression of a metastatic tumor since it involves intravasation, extravasation, or the migration of HSCs following a gradient of SDF1. The first colonized tissue is caudal hematopoietic tissue (CHT). This physiological process is considered, in the context of the invention, as representative of the appearance and/or progression of a metastatic tumor. […]

The next data set concerns VIMENTIN
Kind of data set: q-RT-PCR expression of EMT markers in MDA-MB-231 cells under hypoxia: VIMENTIN
It counts as cell-based, human. The conditions noted are these: althiazide 100 μM, hypoxic conditions (1% O2), vs control, FIG. 11. The method, then:
The cell cultures are carried out on human breast cancer epithelial cell lines MDA-MB-231 (HTB-26™), resulting from metastases present in a pleural effusion of a patient with a mammary adenocarcinoma. This line is used as a triple negative cancer cell model (no expression of ER-type nuclear estrogen receptors, nuclear progesterone receptors or overexpression of the oncogene encoding HER2 protein (Human Epidermal Growth factor Receptor-2).
The cells were cultured in DMEM medium (Eurobio, Fance) supplemented with 10% fetal calf serum (FCS) (Eurobio, Fance) at 37° C., 5% CO2. The medium was changed every 3 days.
The cells were placed in a controlled atmosphere at 1% oxygen 24 hours before the application of the different treatments.
The expression of the mRNAs is measured by the q-RT-PCR method. The cells were seeded at the density of 500,000 cells/well in 6-well plates. After 24 hours at 37° C., 5% CO2 and 1% O2, the medium was renewed and added the various treatments. RNA was isolated using TRI Reagent® (sigma), assayed and retro-transcribed into complementary DNA using the PrimeScript RT Reagent Kit (Takara). The expression levels of the mRNA of the genes of interest were determined by quantitative PCR (LightCycler® 480 Instrument II) with the primers listed in Table 2: […]
The results are calculated using the Delta Delta Ct (Δ ΔCt) method.

Where two headings read alike, the source gives them in different places.

`C=CCSCC1Nc2cc(Cl)c(S(N)(=O)=O)cc2S(=O)(=O)N1` (racemic) [althiazide]: the “reduction of the number of HSCs accumulated in CHT” value is 41% in data set [1] and “most effective chemical compound” in data set [1] (listed as Althiazide). Moreover, the “anti-migratory effect (HSCs accumulated in CHT) compared with dasatinib” value in data set [1] (10 μM both, control DMSO 1%, FIG. 5) is reported as “as effective as dasatinib”. Also, the “decrease in the number of cells that colonized/migrated in CHT, second test” value in data set [1] (10 μM, larger number of embryos (n=64 and n=74), FIG. 4) is recorded as 36.2%. Further, the “efficiency on number of cells migrated to CHT” value was “no effect” in data set [1] (althiazide 1 μM), 50% in data set [1] (althiazide 10 μM) and 100% in data set [1] (althiazide 100 μM). The “invasion of CHT by CD41:GFP cells / number of cells having colonized CHT, in words” value in data set [1] (thiazide compounds test, 10 μM or 25 μM, FIG. 9) was “most effective chemical compound”. Besides, the “reduction of migration (cells having colonized CHT)” value in data set [1] (thiazide compounds test, FIG. 9, concentration not stated (tested at 10 and 25 μM)) stood at 30%. Besides, the “toxic effects in the dose effect test” value in data set [1] (zebrafish, in vivo) is reported as “appearance of toxic effects”. The “change in expression of VIMENTIN” value with VIMENTIN is on record as −22%.

The values are drawn from patent US20230137849A1, “USE OF A COMPOUND OF THE DIURETICS CLASS FOR TREATING CANCER” (AZELEAD, priority 2017, published 2023).
